PMC6302136, “Quantitative Chemotherapeutic Profiling of Gynecologic Cancer Cell Lines Using Approved Drugs and Bioactive Compounds^” (Translational Oncology, 2018)
Like-named read-outs stand apart in the source and are kept apart here.

Columns and labels:
[1] = test system: 11 gynecologic cancer cell lines; assay: qHTS ATPlite cell viability, gynecologic cancer cell lines (ovarian, cervical, placental); type: cell-based, human; details: for IC50: Homo sapiens, 48 h; for Average SI: vs HEK 293T, >100 = inactive in HEK293T (efficacy <50%)
Experimental: The ATPlite luminescence assay system assay kit was used to determine cell viability. The reagent was reconstituted and prepared as described by the manufacturer. To measure the cell death caused by the compounds, cells were cultured in 4 μl of media for 16 hours at 37°C with 5% CO2 in assay plates, followed by the addition of DMSO or 16 SOC chemotherapeutic compounds dissolved in DMSO. SOC compounds were dosed at 11 concentrations (1:3 dilution) in quadruplicate from 57.5 μM to 0.977 nM using the automated Wako 1536 Pin Tool workstation and incubated at 37°C with 5% CO2 for 24, 48, or 72 hours. Four microliters of ATPlite, the ATP monitoring reagent, was then added to each well of the assay plates using the Multidrop Combi reagent dispenser followed by incubation for 15 minutes at room temperature. The resulting luminescence was measured using the ViewLux plate reader. Data were normalized for each drug using the largest luminescence value as 100% full cell viability (0% cell killing) and to the smallest luminescence value 0% viability (100% cell killing).
A qHTS [79], in which each compound was assayed in five concentrations (0.092, 0.46, 2.3, 11.5, and 57.5 μM), was performed for the primary compound screen using the NPC [80] and NPACT drug libraries at NCATS. The OBGYN cancer and HEK 293T control cells were seeded into 1536-well assay plates at 1000 cells per 4 μl/well and incubated at 37°C in 5% CO2 for 48 hours. The ATPlite assay to determine the IC50 values for each compound was conducted as described above. Plates were processed on the fully integrated Kalypsys robotic system.

[2] = read-out: Cmax, cited from earlier work
HDAC 1/2/3/11 = details: inhibits only HDAC 1/2/3/11; cited from earlier work
HDAC 1/2/3 = details: against HDAC 1/2/3 only; cited from earlier work
[3] = Pan-GYN cancer cell line killer

Compound | IC50 ([1]; read-out: Average IC50 (μM)) | Average SI [1, 3] | Average SI ([1]; Pan-GYN cancer cell line killer, listed as mocetinostat) | Cmax ([2]; 10 mg/kg, in humans) | Cmax ([2]; 40 mg/kg, in humans) | potency of HDAC inhibition (HDAC 1/2/3/11) | potency of HDAC inhibition (HDAC 1/2/3) | IC50 ([1]; Pan-GYN cancer cell line killer, mean of all cell lines fulfilling criteria, read-out: Average IC50) | Average SI ([1]; Pan-GYN cancer cell line killer, listed as entinostat) | Cmax ([2]; humans, 15 mg)
Nc1ccccc1NC(=O)c1ccc(CNc2nccc(-c3cccnc3)n2)cc1 [Mocetinostat] | 2.76 ± 1.98 µM | >100 | > 100 | ~21.4 µM | 75.7 µM | low micromolar potency or below |  |  |  | 
Nc1ccccc1NC(=O)c1ccc(CNC(=O)OCc2cccnc2)cc1 [Entinostat] |  | >100 |  |  |  |  | submicromolar potency | 7.11 ± 6.62 µM | > 100 | 0.46 µM
